Data published in US4398937A, “Selective algaecides for control of cyanochloronta” (The University of Southern Mississippi, priority 1981, dated 1983).
Read-outs that look alike come from different tables or passages of the source.

Experiments:
Type in all cases: cell-based
[1] = system: Anabaena sp.; assay: Test tube culture inhibition of Anabaena sp., algal units/ml; details: for inhibition of growth at 10 ppm: read-out: reduction of algal units/ml, % of the control
Procedure: (§1) The algae used in this particular study were Chlamydomonas sp., Chlorella vulgaris, Anabaena sp., and Anabaena flos-aquae. Cultures of these algae were obtained, subcultured, and aqueous stocks of algae in 400 ml BBM were prepared and were used in log phase growth to innoculate test cultures.
(§2) The fatty acids which were tested as algal inhibitors were 9, 10-dihydroxystearic acid, linoleic acid, dodecanoic acid, and ricinoleic acid.
(§3) The test procedure involved placing 15 ml of BBM into 25 ml test tubes and innoculating them with 0.2 ml of algal stock solution. Twenty test tubes were innoculated with each algae. Four of these cultures were used with each concentration of each of the fatty acids. Four tubes from each set served as controls. Four concentrations of the fatty acids were used for each alga. The concentrations studied were 0.5 PPM, 1.0 PPM, 5.0 PPM, and 10.0 PPM.
(§4) Algal cultures were incubated under constant light of about 200 foot-candles and at a temperature of 68° F. Bold's Basal Medium (BBM), a modification of Bristol's solution was the medium in which all the cultures were grown. Bold's Basal Medium was prepared as follows:
(§5) Concentrations of fatty acids and the amount of stock solution used to prepare them were as follows:
(§6) Each test tube contained 15 ml sterile BBM. To this was added an aliquot of 0.2 of algal stock solution. Then the appropriate aliquots of warm acid stock solution were added to the appropriate number of culture tubes. These cultures were then incubated 5 days and at that point were counted. The same cultures were also counted after a 12 day growth period.
(§7) Stock solutions of the fatty acids to be tested as algal inhibitors were made from a stock solution of 5% sodium bicarbonate in glass-distilled water. The 5% sodium bicarbonate stock solution was made by dissolving 150 grams of sodium bicarbonate in 3000 ml of glass-distilled water. To insure complete dissolution, the solution was heated and stirred on a magnetic stirrer hot plate. The warm solution was used in preparing the fatty acid stock solutions.
(§8) Quanitative phytoplankton values were determined using the random field method. Filaments, colonies, and aggregations of cells were recorded as algal units. Each unit consisted of approximately 6 cells. Unicellular algae were counted as separate units. Algal counts were made from each of three duplicate cultures. One ml of the algal sample was placed in a Sedgwick-Rafter counting chamber, which is 50 mm long by 20 mm, wide by 1 mm deep. A Wild Heerbrugg, compound microscope with a Whipple grid eyepiece was used to determine quantitative algae values.
(§9) One ml of the algal solution was placed in the counting chamber, and two drops of methyl cellulose were added to minimize the movement of Chlamydomonas sp. Ten random fields were counted and all organisms within the Whipple grid field were enumerated.
(§10) The following formula used to calculate the numbers per milliliter from the field counts: [formula] where: C=number of organisms counted,
(§11) The area of the Whipple grid used was 0.46 mm^2, and the depth of a field was 1 mm. Results of the counts were reported as algal units/ml.

[2] = system: Anabaena flos-aquae; assay: Test tube culture inhibition of Anabaena flos-aquae, algal units/ml
Procedure: as §1, §2, §3, §4, §5, §6, §7, §8, §9, §10, §11

[3] = system: Chlorella vulgaris; assay: Test tube culture inhibition of Chlorella vulgaris, algal units/ml
Procedure: as §1, §2, §3, §4, §5, §6, §7, §8, §9, §10, §11

[4] = system: Chlamydomonas sp.; assay: Test tube culture inhibition of Chlamydomonas sp., algal units/ml
Procedure: as §1, §2, §3, §4, §5, §6, §7, §8, §9, §10, §11

`CCCCCCCCCCCC(=O)O` [Dodecanoic Acid, dodecanoic acid] gave an inhibition of growth at 10 ppm ([1]; 120 h) of 22.7%, an Algal units/ml ([1]; 5 days, 0.5 PPM) of 40435 units/ml and an Algal units/ml ([1]; 5 days, 1.0 PPM) of 32609 units/ml. For the same compound, the Algal units/ml ([1]; 5 days, 5.0 PPM) was 28261 units/ml, the Algal units/ml ([1]; 5 days, 10.0 PPM) was 28696 units/ml and the inhibition of growth at 10 ppm ([1]; 288 h) was 22.7%. It also gave an Algal units/ml ([1]; 12 days, 0.5 PPM) of 139348 units/ml, an Algal units/ml ([1]; 12 days, 1.0 PPM) of 135217 units/ml and an Algal units/ml ([1]; 12 days, 5.0 PPM) of 92826 units/ml. The Algal units/ml ([1]; 12 days, 10.0 PPM) was 91204 units/ml, the “effect on algal growth” value ([2]; 5 and 12 days, all concentrations) was “some inhibitory effects” and the Algal units/ml ([2]; 5 days, 0.5 PPM) was 1087 units/ml. It also gave an Algal units/ml ([2]; 5 days, 1.0 PPM) of 2174 units/ml, an Algal units/ml ([2]; 5 days, 5.0 PPM) of 2714 units/ml and an Algal units/ml ([2]; 5 days, 10.0 PPM) of 2174 units/ml. For the same compound, the Algal units/ml ([2]; 12 days, 0.5 PPM) was 20435 units/ml, the Algal units/ml ([2]; 12 days, 1.0 PPM) was 7609 units/ml and the Algal units/ml ([2]; 12 days, 5.0 PPM) was 6739 units/ml. The Algal units/ml ([2]; 12 days, 10.0 PPM) was 6522 units/ml, the Algal units/ml ([3]; 5 days, 0.5 PPM) was 8913 units/ml and the Algal units/ml ([3]; 5 days, 1.0 PPM) was 11304 units/ml. The Algal units/ml ([3]; 5 days, 5.0 PPM) was 11304 units/ml, the Algal units/ml ([3]; 5 days, 10.0 PPM) was 10435 units/ml and the Algal units/ml ([3]; 12 days, 0.5 PPM) was 217391 units/ml. It also gave an Algal units/ml ([3]; 12 days, 1.0 PPM) of 217391 units/ml, an Algal units/ml ([3]; 12 days, 5.0 PPM) of 217391 units/ml and an Algal units/ml ([3]; 12 days, 10.0 PPM) of 217391 units/ml. For the same compound, the Algal units/ml ([4]; 5 days, 0.5 PPM) was 10652 units/ml, the Algal units/ml ([4]; 5 days, 1.0 PPM) was 10435 units/ml and the Algal units/ml ([4]; 5 days, 5.0 PPM) was 12609 units/ml. The Algal units/ml ([4]; 5 days, 10.0 PPM) was 11957 units/ml, the Algal units/ml ([4]; 12 days, 0.5 PPM) was 47174 units/ml and the Algal units/ml ([4]; 12 days, 1.0 PPM) was 48696 units/ml. It also gave an Algal units/ml ([4]; 12 days, 5.0 PPM) of 46304 units/ml and an Algal units/ml ([4]; 12 days, 10.0 PPM) of 50217 units/ml.
`CCCCC/C=C\C/C=C\CCCCCCCC(=O)O` [Linoleic Acid, linoleic acid] gave an inhibition of growth at 10 ppm ([1]; 120 h, 5 days, 10.0 PPM) of 38.1%, an Algal units/ml ([1]; 5 days, 0.5 PPM) of 45217 units/ml and an Algal units/ml ([1]; 5 days, 1.0 PPM) of 46957 units/ml. For the same compound, the Algal units/ml ([1]; 5 days, 5.0 PPM) was 32609 units/ml, the Algal units/ml ([1]; 5 days, 10.0 PPM) was 19783 units/ml and the “reduction in algal units/ml vs control” value ([1]; 5 days, 10.0 PPM) was 12,174 algal units/ml. For the same compound, the inhibition of growth at 10 ppm ([1]; 288 h, 12 days, 10 PPM) was 19.5%, the Algal units/ml ([1]; 12 days, 0.5 PPM) was 114565 units/ml and the Algal units/ml ([1]; 12 days, 1.0 PPM) was 135217 units/ml. The Algal units/ml ([1]; 12 days, 5.0 PPM) was 98261 units/ml, the Algal units/ml ([1]; 12 days, 10.0 PPM) was 95000 units/ml and the Algal units/ml ([2]; 5 days, 0.5 PPM) was 1087 units/ml. The “effect on algal growth” value ([2]; 5 days, 0.5 PPM) was “inhibition”, the Algal units/ml ([2]; 5 days, 1.0 PPM) was 3261 units/ml and the “effect on algal growth” value ([2]; 5 days, 1.0 PPM) was “stimulation”. For the same compound, the Algal units/ml ([2]; 5 days, 5.0 PPM) was 1087 units/ml, the Algal units/ml ([2]; 5 days, 10.0 PPM) was 217 units/ml and the Algal units/ml ([2]; 12 days, 0.5 PPM) was 14565 units/ml. It also gave an Algal units/ml ([2]; 12 days, 1.0 PPM) of 8261 units/ml, an Algal units/ml ([2]; 12 days, 5.0 PPM) of 4130 units/ml and an Algal units/ml ([2]; 12 days, 10.0 PPM) of 3969 units/ml. The “effect on algal growth” value ([2]; 12 days, all concentrations) was “inhibitory effect”, the inhibition of growth at 10 ppm ([2]; Dolichospermum flos-aquae, 120 h, 5 days, 10 PPM, read-out: reduction of algal units/ml of the control) was 90.9% and the Algal units/ml ([3]; 5 days, 0.5 PPM) was 8697 units/ml. The Algal units/ml ([3]; 5 days, 1.0 PPM) was 12174 units/ml, the Algal units/ml ([3]; 5 days, 5.0 PPM) was 10870 units/ml and the Algal units/ml ([3]; 5 days, 10.0 PPM) was 11304 units/ml. The Algal units/ml ([3]; 12 days, 0.5 PPM) was 195652 units/ml, the Algal units/ml ([3]; 12 days, 1.0 PPM) was 239130 units/ml and the Algal units/ml ([3]; 12 days, 5.0 PPM) was 304348 units/ml. The Algal units/ml ([3]; 12 days, 10.0 PPM) was 195652 units/ml, the Algal units/ml ([4]; 5 days, 0.5 PPM) was 11087 units/ml and the Algal units/ml ([4]; 5 days, 1.0 PPM) was 12609 units/ml. The Algal units/ml ([4]; 5 days, 5.0 PPM) was 12391 units/ml, the “reduction of number of algal units/ml vs control” value ([4]; 5 days, 10 PPM) was 5,000 algal units/ml and the Algal units/ml ([4]; 5 days, 10.0 PPM) was 6522 units/ml. It also gave an Algal units/ml ([4]; 12 days, 0.5 PPM) of 45652 units/ml, an Algal units/ml ([4]; 12 days, 1.0 PPM) of 52174 units/ml and an Algal units/ml ([4]; 12 days, 5.0 PPM) of 50000 units/ml. For the same compound, the Algal units/ml ([4]; 12 days, 10.0 PPM) was 51087 units/ml and the inhibition of growth at 10 ppm ([4]; Chlamydomonas, 120 h, 5 days, 10 PPM, read-out: reduction of number of algal units/ml, % of the control) was 43.4%.
